Numbers after ± are expanded uncertainties.
Columns and labels:
[1] = refractive index (Na D-line) (dimensionless); settings: 101.33 kPa, Liquid, Standard Abbe refractometry
[2] = for mass density: 101.33 kPa, Vibrating tube method; for mass density / surface tension liquid-gas: Liquid; for surface tension liquid-gas: Maximal bubble pressure; for Glass transition temperature: DSC

Compound | refractive index ([1]; 298.15 K) | refractive index ([1]; 303.15 K) | refractive index ([1]; 308.15 K) | refractive index ([1]; 313.15 K) | refractive index ([1]; 318.15 K) | refractive index ([1]; 323.15 K) | refractive index ([1]; 328.15 K) | refractive index ([1]; 333.15 K) | refractive index ([1]; 338.15 K) | mass density ([2]; 298.15 K) [kg/m3] | surface tension liquid-gas ([2]; 298.15 K) [mN/m] | mass density ([2]; 303.15 K) [kg/m3] | surface tension liquid-gas ([2]; 303.15 K) [mN/m] | mass density ([2]; 308.15 K) [kg/m3] | surface tension liquid-gas ([2]; 308.15 K) [mN/m] | mass density ([2]; 313.15 K) [kg/m3] | surface tension liquid-gas ([2]; 313.15 K) [mN/m] | mass density ([2]; 318.15 K) [kg/m3] | surface tension liquid-gas ([2]; 318.15 K) [mN/m] | mass density ([2]; 323.15 K) [kg/m3] | also measured
CCCCn1cc[n+](C)c1.N[C@@H](CO)C(=O)[O-] [1-butyl-3-methylimidazolium L-serinate] | 1.5143 ± 0.0005 | 1.5135 ± 0.0005 | 1.5126 ± 0.0005 | 1.5114 ± 0.0005 | 1.5106 ± 0.0005 | 1.5096 ± 0.0005 | 1.5091 ± 0.0005 | 1.5077 ± 0.0005 | 1.5069 ± 0.0005 | 1156.04 ± 1.1 | 45.4 ± 0.4 | 1152.82 ± 1.1 | 45.2 ± 0.4 | 1149.61 ± 1.1 | 45 ± 0.4 | 1146.45 ± 1.1 | 44.7 ± 0.4 | 1143.31 ± 1.1 | 44.4 ± 0.4 | 1140.08 ± 1.1 | surface tension liquid-gas ([2]; 323.15 K): 44.3 ± 0.4 mN/m; mass density ([2]; 328.15 K): 1136.91 ± 1.1 kg/m3; surface tension liquid-gas ([2]; 328.15 K): 44 ± 0.4 mN/m; mass density ([2]; 333.15 K): 1133.81 ± 1.1 kg/m3; surface tension liquid-gas ([2]; 333.15 K): 43.8 ± 0.4 mN/m; mass density ([2]; 338.15 K): 1130.64 ± 1.1 kg/m3; surface tension liquid-gas ([2]; 338.15 K): 43.5 ± 0.4 mN/m; Glass transition temperature [2]: -47.20 ± 1 °C
CCC[n+]1ccn(C)c1.N[C@@H](CO)C(=O)[O-] [1-methyl-3-propylimidazolium L-serinate] | 1.5179 ± 0.0005 | 1.5165 ± 0.0005 | 1.5153 ± 0.0005 | 1.5141 ± 0.0005 | 1.5131 ± 0.0005 | 1.5123 ± 0.0005 | 1.5112 ± 0.0005 | 1.51 ± 0.0005 | 1.5086 ± 0.0005 | 1181.51 ± 1.1 | 46.8 ± 0.5 | 1178.34 ± 1.1 | 46.6 ± 0.4 | 1175.19 ± 1.1 | 46.4 ± 0.4 | 1172.03 ± 1.1 | 46.1 ± 0.4 | 1168.88 ± 1.1 | 45.8 ± 0.4 | 1165.67 ± 1.1 | surface tension liquid-gas ([2]; 323.15 K): 45.6 ± 0.4 mN/m; mass density ([2]; 328.15 K): 1162.6 ± 1.1 kg/m3; surface tension liquid-gas ([2]; 328.15 K): 45.4 ± 0.4 mN/m; mass density ([2]; 333.15 K): 1159.49 ± 1.1 kg/m3; surface tension liquid-gas ([2]; 333.15 K): 45.1 ± 0.4 mN/m; mass density ([2]; 338.15 K): 1156.42 ± 1.1 kg/m3; surface tension liquid-gas ([2]; 338.15 K): 44.9 ± 0.4 mN/m; Glass transition temperature [2]: -54.5 ± 1 °C

Source: the NIST ThermoML archive (doi:10.1016/j.jct.2015.04.029)
